In patent publication US20250257048A1, “METHODS OF PREPARING AN ISOINDOLINONE DERIVATIVE AND CRYSTAL FORMS THEREOF” (Monte Rosa Therapeutics, Inc., priority 2022, published 2025):
“And” between values parts separate entries of the source, which are not always exact repeats. Equal entries are not always repeated. Where two headings read alike, the source gives them in different places.

Assays:
[1] = molecular target: Full length wild-type cereblon CRBN (Homo sapiens (Human), UniProt Q96SW2); assay: fluorescence polarization (FP) homogeneous assay, cereblon binding; conditions: CRBN 80.0 nM, probe 5 nM, FP read after 12 hours, read-out: rFP IC50
Experimental: Compound activity was monitored in a fluorescence polarization (FP) homogeneous assay using 1-[5-({2-[2-(2-{[2-(2,6-dioxopiperidin-3-yl)-1,3-dioxo-2,3-dihydro-1H-isoindol-4-yl]oxy}acetamido) ethoxy]ethyl}carbamoyl) pentyl]-3,3-dimethyl-2-[(1E,3E)-5-[(2E)-1,3,3-trimethyl-5-sulfo-2,3-dihydro-1H-indol-2-ylidene]penta-1,3-dien-1-yl]-3H-indol-1-ium-5-sulfonate as a fluorescent probe. Unless otherwise stated, all reagents were purchased from Sigma Aldrich. Enzymatic reactions were conducted in Perkin-Elmer Black 384 well ProxiPlate Plus (catalogue no. 6008269) in 10 μL total volume. Full length wild-type cereblon CRBN (80.0 nM, 10 μL) was incubated in assay buffer containing 20 mM HEPES (pH 8.0), […], 0.5 mM TCEP and 0.05% Tween 20 in the presence or absence of compound (300 nL). Inhibitors were stored as 10 mM DMSO stocks in an inert environment (low humidity, dark, low oxygen, room temperature) using the Storage Pod System. Compounds and DMSO were dispensed using the Echo E5XX (Labcyte Inc. USA) to give concentrations from 300 to 0.937 or 3000 to 9.3 nM in a 12 data point curve. […] FP was measured after a period of 12 hours using a Pherastar plate reader (BMG Labtech, Germany) exciting at 590 nm and measuring the amount of parallel and perpendicular light at 675 nm. […]

GSPT1 = GSPT1 (Homo sapiens (Human), UniProt P15170+Q96SW2); assay: immunofluorescence assay for GSPT1 degradation in CAL-51 cells; format: cell-based; conditions: 6 hours treatment
Experimental: The representative compounds were tested in an immunofluorescence assay for their activity to bind to degrade GSPT1. CAL-51 cells were purchased from DSMZ (cat. Number ACC302), sub-cultured in 90% Dulbecco's MEM (4.5 g/L glucose, Gibco 11965)+10% heat inactivated FBS (BioConcept, 2-01F136I) and incubated at 37° C., 5% CO2. For the assay, imaging microtiterplate Cell Carrier 96 Ultra (Perkin Elmer 6055302) were pre-coated with Fibronectin (Sigma F085, 30 μl at 0.2 μg/ml) in PBS (100 μl, Gibco 14190) for 45 min at room temperature, rinsed with PBS and CAL-51 cells (30K cells/well) were plated and let to adhere overnight. Cells were treated with compounds typically using a serial dilution ranging from 30 μM to 0.1 nM for 6 hours. […]
Primary antibody (human GSPT1, Sigma HPA052488) was diluted in blocking buffer (dil.1/300, 35 μl/well) and incubated with the cells overnight at 4° C. […] Fluorescence intensity of Alexa-Fluor 488 (GSPT1), Alexa-Fluor 647 (Actin) and DAPI (Nucleus) were measured. […] The outline of the cells was determined analogously from the sum of the normalized, smoothed DAPI and Actin channel, starting from each nucleus.
The Alexa-Fluor 488 (GSPT1) signal intensity in each cell was finally measured, in order to obtain a Mean intensity per cell. GSPT1 degradation (DC50) was calculated after normalization to controls and data import in CDD vault Database, using non-linear regression. […]

[2] = solid stability at 40° C./75% RH and 25° C./60% RH for 7 days (HPLC purity, XRPD); format: physicochemical; conditions: for physical and chemical stability: 25° C. 60% RH and 40° C. 75% RH for 7 days
Experimental: Solid stability was evaluated at 40° C./75RH and 25° C./60% RH for 7 days.

[3] = solubility of crystalline Form I in media (water) at 37° C.; format: physicochemical
Experimental: Solubility of crystalline Form I was evaluated by weighing about 10 mg of crystalline Form I into 2 mL of media, and then stirring the suspension at 37° C. for 24 hours. At 1, 4 and 24 hours, the suspensions were filtered, and the filtrates were analyzed by HPLC and pH.

[4] = hygroscopicity of crystalline form; format: physicochemical

Sequence of Full length wild-type cereblon CRBN (Q96SW2 whole entry): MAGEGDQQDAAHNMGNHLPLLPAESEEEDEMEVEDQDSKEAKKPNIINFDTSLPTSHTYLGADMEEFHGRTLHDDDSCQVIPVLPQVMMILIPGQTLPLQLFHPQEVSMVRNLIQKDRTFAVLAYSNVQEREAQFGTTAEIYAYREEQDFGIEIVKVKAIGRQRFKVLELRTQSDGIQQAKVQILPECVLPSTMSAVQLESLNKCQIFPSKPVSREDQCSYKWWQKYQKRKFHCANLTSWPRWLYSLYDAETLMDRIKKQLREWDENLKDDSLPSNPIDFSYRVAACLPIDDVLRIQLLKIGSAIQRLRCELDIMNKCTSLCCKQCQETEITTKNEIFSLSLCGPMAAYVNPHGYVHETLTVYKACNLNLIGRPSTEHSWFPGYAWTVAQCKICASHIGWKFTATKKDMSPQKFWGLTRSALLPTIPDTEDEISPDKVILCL
Sequence of GSPT1 (P15170 whole entry): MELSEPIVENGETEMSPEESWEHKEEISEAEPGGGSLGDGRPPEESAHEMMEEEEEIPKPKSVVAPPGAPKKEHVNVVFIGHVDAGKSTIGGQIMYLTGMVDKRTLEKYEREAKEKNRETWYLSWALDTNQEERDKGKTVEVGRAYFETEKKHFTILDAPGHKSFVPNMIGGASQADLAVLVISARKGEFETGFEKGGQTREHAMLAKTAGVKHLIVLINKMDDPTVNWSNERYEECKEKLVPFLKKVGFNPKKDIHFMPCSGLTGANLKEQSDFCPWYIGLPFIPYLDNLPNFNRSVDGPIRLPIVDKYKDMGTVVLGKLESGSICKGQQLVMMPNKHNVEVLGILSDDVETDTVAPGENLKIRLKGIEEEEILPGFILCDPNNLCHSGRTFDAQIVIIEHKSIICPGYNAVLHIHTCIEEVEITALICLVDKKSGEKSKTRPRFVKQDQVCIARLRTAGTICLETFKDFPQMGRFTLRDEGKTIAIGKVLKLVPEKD
Sequence of GSPT1 (Q96SW2 whole entry): as the sequence (Q96SW2 whole entry) above
Sequence of GSPT1 (Q16531 whole entry partner): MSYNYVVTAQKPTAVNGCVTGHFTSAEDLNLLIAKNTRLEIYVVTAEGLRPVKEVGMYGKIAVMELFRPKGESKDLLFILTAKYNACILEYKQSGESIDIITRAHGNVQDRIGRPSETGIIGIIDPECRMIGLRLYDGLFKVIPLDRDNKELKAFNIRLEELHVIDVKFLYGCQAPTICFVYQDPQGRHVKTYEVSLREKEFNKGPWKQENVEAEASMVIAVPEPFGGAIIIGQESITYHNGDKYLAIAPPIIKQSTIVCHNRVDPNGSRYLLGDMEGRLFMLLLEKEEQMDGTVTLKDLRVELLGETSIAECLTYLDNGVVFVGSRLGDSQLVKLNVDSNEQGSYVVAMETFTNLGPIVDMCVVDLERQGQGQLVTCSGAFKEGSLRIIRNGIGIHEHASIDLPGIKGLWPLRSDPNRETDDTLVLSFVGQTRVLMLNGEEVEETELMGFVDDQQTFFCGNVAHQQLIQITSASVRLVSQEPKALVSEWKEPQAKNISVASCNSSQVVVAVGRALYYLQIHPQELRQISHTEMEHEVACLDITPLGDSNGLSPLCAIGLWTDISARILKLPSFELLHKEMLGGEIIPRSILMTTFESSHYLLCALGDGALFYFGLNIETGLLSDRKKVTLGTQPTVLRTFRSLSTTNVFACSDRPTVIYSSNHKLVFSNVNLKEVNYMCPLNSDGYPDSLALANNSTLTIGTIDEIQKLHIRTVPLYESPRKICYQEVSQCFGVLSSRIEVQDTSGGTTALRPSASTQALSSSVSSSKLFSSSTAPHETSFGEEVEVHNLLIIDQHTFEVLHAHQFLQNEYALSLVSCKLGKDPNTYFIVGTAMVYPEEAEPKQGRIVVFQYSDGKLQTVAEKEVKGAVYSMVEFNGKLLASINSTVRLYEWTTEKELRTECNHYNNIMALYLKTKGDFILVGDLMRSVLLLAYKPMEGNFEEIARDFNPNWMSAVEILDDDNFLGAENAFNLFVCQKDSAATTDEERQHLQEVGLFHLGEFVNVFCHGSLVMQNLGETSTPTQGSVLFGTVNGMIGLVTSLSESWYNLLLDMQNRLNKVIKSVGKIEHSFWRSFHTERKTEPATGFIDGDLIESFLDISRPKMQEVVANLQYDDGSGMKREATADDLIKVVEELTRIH

With `O=C1CCC(N2Cc3ccc(COC(=O)Nc4cc(OC(F)(F)F)ccc4F)cc3C2=O)C(=O)N1` (centres unmarked) [Compound 145, (2-(2,6-dioxopiperidin-3-yl)-3-oxoisoindolin-5-yl)methyl (2-fluoro-5-(trifluoromethoxy)phenyl)carbamate] the IC50 [1] was 500 to 1100 nM and the DC50 (GSPT1) was 30 to 300 nM.
With `O=C1CCC(N2Cc3ccc(COC(=O)Nc4cc(OC(F)(F)F)ccc4F)cc3C2=O)C(=O)N1` (centres unmarked) [Form I, (2-(2,6-dioxopiperidin-3-yl)-3-oxoisoindolin-5-yl)methyl (2-fluoro-5-(trifluoromethoxy)phenyl)carbamate] the “physical and chemical stability” value [2] was “good physical and chemical stability”, the “physical and chemical stability” value ([2]; listed as Crystalline Form I) was “physically and chemically stable” and the “physical and chemical stability” value ([2]; listed as crystalline Form I) was “no obvious degradation nor form change”. For the same compound, the Purity ([2]; 25° C./60% RH, 1 day) was 100%, the XRPD ([2]; 25° C./60% RH, 1 day) was “Form I” and the Purity ([2]; 25° C./60% RH, 7 day) was 100%. The XRPD ([2]; 25° C./60% RH, 7 day) was “Form I”, the Purity ([2]; 40° C./75% RH, 1 day) was 100% and the XRPD ([2]; 40° C./75% RH, 1 day) was “Form I”. For the same compound, the Purity ([2]; 40° C./75% RH, 7 day) was 99.95%, the XRPD ([2]; 40° C./75% RH, 7 day) was “Form I” and the Purity-T0 ([2]; T0 (day 0), HPLC) was 100%. The “crystal form of remained solid in all media” value ([3]; 37° C., after 1, 4 and 24 hours, XRPD (FIG. 5)) was “unchanged”, the solubility ([3]; aqueous solution, 37 °C, aqueous buffer, thermodynamic from solid, about pH 6 to 7, read-out: solubility in an aqueous solution) was under 1 µg/mL and the “pH(24 h)” value ([3]; pH of filtrate, H2O, 37° C., 24 h) was 6.35 and 6.61 and 6.41. The “XRPD(24 h)” value ([3]; remained solid, H2O, 37° C., 24 h) was “Form I”, the solubility at 1 h ([3]; water, 37 °C, thermodynamic from solid, H2O, 1 h, triplicate H2O-1 to H2O-3) was under 1 µg/mL and the solubility at 4 h ([3]; water, 37 °C, thermodynamic from solid, H2O, 4 h, triplicate H2O-1 to H2O-3) was under 1 µg/mL. For the same compound, the solubility at 24 h ([3]; water, 37 °C, thermodynamic from solid, H2O, 24 h, triplicate H2O-1 to H2O-3) was under 1 µg/mL, the solubility ([3]; water, 37 °C, water, thermodynamic from solid, read-out: solubility in water) was under 1 µg/mL and the hygroscopicity [4] was “nonhydroscopic”.
